Laboratory results taken from patent publication US20240148821A1, “PHARMACEUTICAL USE OF CYCLIC PEPTIDE COMPOUND” (CHUGAI SEIYAKU KABUSHIKI KAISHA, priority 2021, published 2024).
Numbered stars: 1 amine (or outer) side, 2 acyl side, 3 side chain; on linkers, the order of the positions; unused ones are H or OH. Bridge positions count the residues as written; N and C are the ends. Square brackets hold non-standard residues; d marks the D form. Peptide text beside a SMILES is read from it. * marks the point of attachment. hPhe(3,5-F2-4-CF3) = N[C@@H](CCc1cc(F)c(C(F)(F)F)c(F)c1)C(=O)O; hPhe(3-Cl-4-CF3) = N[C@@H](CCc1ccc(C(F)(F)F)c(Cl)c1)C(=O)O; hPhe(3-F,4-CF3) = N[C@@H](CCc1ccc(C(F)(F)F)c(F)c1)C(=O)O; hPhe(3-OMe-4-CF3) = COc1cc(CC[C@H](N)C(=O)O)ccc1C(F)(F)F; NMePhe(4-CF3) = CN[C@@H](Cc1ccc(C(F)(F)F)cc1)C(=O)O; NMePhe(4-Cl) = CN[C@@H](Cc1ccc(Cl)cc1)C(=O)O; NMePhe(4-Me) = CN[C@@H](Cc1ccc(C)cc1)C(=O)O; X110 = Cc1ccc(I)cc1C[C@H](N[*:1])C(=O)[*:2]; NMePhe(2-Cl) = CN[C@@H](Cc1ccccc1Cl)C(=O)O; NMedβ3hAla = C[C@H](CC(=O)[*:2])N(C)[*:1]; NMeAla(cPent) = CN[C@@H](CC1CCCC1)C(=O)O; NMeGly(cPent) = CN[C@H](C(=O)O)C1CCCC1; Phe(2-Cl) = N[C@@H](Cc1ccccc1Cl)C(=O)O; Phe(3-I) = N[C@@H](Cc1cccc(I)c1)C(=O)O; Phe(4-Me) = Cc1ccc(C[C@H](N)C(=O)O)cc1; Pro(4,4-F2) = O=C(O)[C@@H]1CC(F)(F)CN1; NMeY = CN[C@@H](Cc1ccc(O)cc1)C(=O)O; NMeCha = CN[C@@H](CC1CCCCC1)C(=O)O; Gly(N-(CH2)2OEt) = CCOCCNCC(=O)O; NMeCba = CN[C@@H](CC1CCC1)C(=O)O; NMeChg = CN[C@H](C(=O)O)C1CCCCC1; NMeF = CN[C@@H](Cc1ccccc1)C(=O)O; Gly(cPr) = N[C@H](C(=O)O)C1CC1; NMeD = CN[C@@H](CC(=O)O)C(=O)O; NMeL = CN[C@@H](CC(C)C)C(=O)O; NMehSer = CN[C@@H](CCO)C(=O)O; NMeV = CN[C@H](C(=O)O)C(C)C; d(β3hA) = C[C@@H](N)CC(=O)O; Azetidin(1-yl) = C1CN(*)C1; NMeAbu = CC[C@H](NC)C(=O)O; NMeS = CN[C@@H](CO)C(=O)O; NMeA = CN[C@@H](C)C(=O)O; NMeAib = CNC(C)(C)C(=O)O; Nle = CCCC[C@H](N)C(=O)O; Piperidide = C1CCN(*)CC1; Pyrrolidide = C1CCN(*)C1; Ac5c = NC1(C(=O)O)CCCC1; Aze = O=C(O)[C@@H]1CCN1; Ac3c = NC1(C(=O)O)CC1; Sar = CNCC(=O)O

Each compound was assayed on Human pancreatic cancer cell line AsPC-1 (G12D mutation Kras) (assay: AsPC-1 cell growth inhibition (AsPC-1 CGI)). Details: read-out: AsPC-1 cell growth inhibition, 50% growth inhibitory concentration (IC50 value); 96 hours, CellTiter-Glo, values classified in ranges.
Assay type: cell-based
Procedure: Test compounds were serially dilated with dimethyl sulfoxide, and 200 nL was then dispensed to a U-bottom 96-well plate using Labcyte Echo. […] The cell suspension was dispensed to a. plate containing a test compound at 100 μL per well and incubated at 37° C. in a 5% carbon dioxide gas incubator. 96 hours later, 80 μL of CellTiter-Glo (Promega) was added to each well and fluorescence was measured.

SMILES	IC50 [nM]
CC[C@H](C)[C@@H]1NC(=O)[C@H](CC(C)C)N(C)C(=O)C[C@@H](C(=O)N2CCC2)N(C)C(=O)[C@H](C2CCCC2)N(C)C(=O)C2(CCCC2)NC(=O)[C@@H]2CCCN2C(=O)[C@H](CCc2ccc(C(F)(F)F)c(Cl)c2)NC(=O)CN(C)C(=O)[C@H](CC2CCCCC2)N(C)C(=O)[C@@H]2CCN2C(=O)[C@H](C)N(C)C1=O [Compound 515] ([NMeL]I[NMeA][Aze][NMeCha][Sar][hPhe(3-Cl-4-CF3)]P[Ac5c][NMeGly(cPent)][NMeD]-{Azetidin(1-yl)}; lactam N-11)	≤ 20
CC[C@H](C)[C@@H]1NC(=O)[C@H](CC(C)C)N(C)C(=O)C[C@@H](C)N(C)C(=O)[C@H](C(C)C)N(C)C(=O)C2(CC2)NC(=O)[C@@H]2CCCN2C(=O)[C@H](CCc2ccc(C(F)(F)F)c(Cl)c2)NC(=O)CN(C)C(=O)[C@H](CC2CCCCC2)N(C)C(=O)CN(C)C(=O)CN(C)C1=O [Compound 268] (cyclo([Ac3c][NMeV][NMedβ3hAla][NMeL]I[Sar][Sar][NMeCha][Sar][hPhe(3-Cl-4-CF3)]P))	> 500
CCCC[C@@H]1NC(=O)[C@H](Cc2cc(I)ccc2C)NC(=O)CN(C)C(=O)[C@H](Cc2ccc(OC)cc2)N(C)C(=O)[C@@H]2CCN2C(=O)[C@H](C)N(C)C(=O)[C@H]([C@@H](C)CC)NC(=O)[C@H](CC)N(C)C(=O)C[C@@H](C(=O)N2CCCCC2)N(C)C(=O)[C@H](CC(C)C)NC(=O)C(C)(C)N(C)C1=O [Compound 1358] ([NMeAbu]I[NMeA][Aze][NMeY](Me)[Sar][X110][Nle][NMeAib]L[NMeD]-Piperidide; lactam N-11)	> 500
CCOCCN1CC(=O)N(C)[C@@H](CC2CCCCC2)C(=O)N(C)CC(=O)N[C@@H](CCc2ccc(C(F)(F)F)c(Cl)c2)C(=O)N2CCC[C@H]2C(=O)NC2(CCCC2)C(=O)N(C)[C@@H](C(C)C)C(=O)N[C@H](C)CC(=O)N(C)[C@@H](CC(C)C)C(=O)N[C@@H]([C@@H](C)CC)C(=O)N(C)CC1=O [Compound 864] (cyclo([Ac5c][NMeV][d(β3hA)][NMeL]I[Sar][Gly(N-(CH2)2OEt)][NMeCha][Sar][hPhe(3-Cl-4-CF3)]P))	> 500
CC[C@H](C)[C@@H]1NC(=O)[C@H](CC(C)C)N(C)C(=O)C[C@@H](C)N(C)C(=O)[C@H](CC(C)C)NC(=O)C(C)(C)N(C)C(=O)[C@H](CC(C)C)NC(=O)[C@H](CCc2ccc(C(F)(F)F)c(Cl)c2)NC(=O)CN(C)C(=O)[C@H](Cc2ccc(C(F)(F)F)cc2)N(C)C(=O)[C@@H]2CCN2C(=O)CN(C)C1=O [Compound 1403] (cyclo([Aze][NMePhe(4-CF3)][Sar][hPhe(3-Cl-4-CF3)]L[NMeAib]L[NMedβ3hAla][NMeL]I[Sar]))	> 500
CC[C@H](C)[C@@H]1NC(=O)[C@H](CC(C)C)N(C)C(=O)C[C@@H](C(=O)N2CCCCC2)N(C)C(=O)[C@H](C2CCCCC2)N(C)C(=O)C2(CCCC2)NC(=O)[C@@H]2CCCN2C(=O)[C@H](CCc2ccc(C(F)(F)F)c(Cl)c2)NC(=O)CN(C)C(=O)[C@H](CCOC)N(C)C(=O)CN(C)C(=O)CN(C)C1=O [Compound 159] ([NMeL]I[Sar][Sar][NMehSer](Me)[Sar][hPhe(3-Cl-4-CF3)]P[Ac5c][NMeChg][NMeD]-Piperidide; lactam N-11)	> 500
CC[C@H](C)[C@@H]1NC(=O)[C@H](COC)N(C)C(=O)C[C@@H](C(=O)N2CCCCC2)N(C)C(=O)[C@H](C(C)C)N(C)C(=O)C2(CCCC2)NC(=O)[C@@H]2CCCN2C(=O)[C@H](CCc2ccc(C(F)(F)F)c(Cl)c2)NC(=O)CN(C)C(=O)[C@H](CC2CCCCC2)N(C)C(=O)[C@@H]2CCN2C(=O)[C@H](C)N(C)C1=O [Compound 636] ([NMeS](Me)I[NMeA][Aze][NMeCha][Sar][hPhe(3-Cl-4-CF3)]P[Ac5c][NMeV][NMeD]-Piperidide; lactam N-11)	> 500
CC[C@H](C)[C@@H]1NC(=O)[C@H](CC(C)C)N(C)C(=O)C[C@@H](C)NC(=O)[C@H](CC2CCC2)N(C)C(=O)C2(CCCC2)NC(=O)[C@@H]2CCCN2C(=O)[C@H](CCc2ccc(C(F)(F)F)c(Cl)c2)NC(=O)CN(C)C(=O)[C@H](CC2CCCCC2)N(C)C(=O)CN(C)C(=O)CN(C)C1=O [Compound 59] (cyclo([Ac5c][NMeCba][d(β3hA)][NMeL]I[Sar][Sar][NMeCha][Sar][hPhe(3-Cl-4-CF3)]P))	> 500
CC[C@H](C)[C@@H]1NC(=O)[C@H](CC(C)C)N(C)C(=O)C[C@@H](C(=O)N(C)C)N(C)C(=O)[C@H](C2CCCC2)N(C)C(=O)C2(CCCC2)NC(=O)[C@H](Cc2ccccc2Cl)N(C)C(=O)[C@H](CCc2ccc(C(F)(F)F)c(Cl)c2)NC(=O)CN(C)C(=O)[C@H](CC2CCCCC2)N(C)C(=O)[C@@H]2CCN2C(=O)[C@H](C)N(C)C1=O [Compound 1009] ([NMeL]I[NMeA][Aze][NMeCha][Sar][hPhe(3-Cl-4-CF3)][NMePhe(2-Cl)][Ac5c][NMeGly(cPent)][NMeD]-NMe2; lactam N-11)	> 500
CC[C@H](C)[C@@H]1NC(=O)[C@H](CC(C)C)N(C)C(=O)C[C@@H](C(=O)N2CCCCC2)N(C)C(=O)[C@H](C2CCCC2)N(C)C(=O)C2(CCCC2)NC(=O)[C@@H]2CCCN2C(=O)[C@H](CCc2ccc(C(F)(F)F)c(OC)c2)NC(=O)CN(C)C(=O)[C@H](CC2CCCCC2)N(C)C(=O)[C@@H]2CCN2C(=O)[C@H](C)N(C)C1=O [Compound 2080] ([NMeL]I[NMeA][Aze][NMeCha][Sar][hPhe(3-OMe-4-CF3)]P[Ac5c][NMeGly(cPent)][NMeD]-Piperidide; lactam N-11 (inferred); C-terminus assumed)	≤ 20
CC(C)C[C@H]1C(=O)N[C@@H](C2CC2)C(=O)N(C)CC(=O)N(C)CC(=O)N(C)[C@@H](CC2CCCCC2)C(=O)N(C)CC(=O)N[C@@H](CCc2ccc(C(F)(F)F)c(Cl)c2)C(=O)N2CCC[C@H]2C(=O)NC2(CCCC2)C(=O)N(C)[C@@H](C2CCCCC2)C(=O)N(C)[C@H](C(=O)N2CCCCC2)CC(=O)N1C [Compound 1862] ([NMeL][Gly(cPr)][Sar][Sar][NMeCha][Sar][hPhe(3-Cl-4-CF3)]P[Ac5c][NMeChg][NMeD]-Piperidide; lactam N-11)	> 500
CC[C@H](C)[C@@H]1NC(=O)[C@H](CC(C)C)N(C)C(=O)C[C@@H](C(=O)N2CCCC2)N(C)C(=O)[C@H](C2CCCC2)N(C)C(=O)C2(CCCC2)NC(=O)[C@@H]2CC(F)(F)CN2C(=O)[C@H](CCc2cc(F)c(C(F)(F)F)c(F)c2)NC(=O)CN(C)C(=O)[C@H](CC2CCCCC2)N(C)C(=O)CN(C)C(=O)CN(C)C1=O [Compound 1166] ([NMeL]I[Sar][Sar][NMeCha][Sar][hPhe(3,5-F2-4-CF3)][Pro(4,4-F2)][Ac5c][NMeGly(cPent)][NMeD]-Pyrrolidide; lactam N-11)	≤ 20
CCCC[C@@H]1NC(=O)[C@H](Cc2cccc(I)c2)NC(=O)CN(C)C(=O)[C@H](CC2CCCC2)N(C)C(=O)[C@@H]2CCN2C(=O)[C@H](C)N(C)C(=O)[C@H]([C@@H](C)CC)NC(=O)[C@H](CC(C)C)N(C)C(=O)C[C@@H](C(=O)N2CCCCC2)N(C)C(=O)[C@H](CC(C)C)NC(=O)C(C)(C)N(C)C1=O [Compound 1432] ([NMeL]I[NMeA][Aze][NMeAla(cPent)][Sar][Phe(3-I)][Nle][NMeAib]L[NMeD]-Piperidide; lactam N-11)	> 500
CC[C@H](C)[C@@H]1NC(=O)[C@H](C(C)C)N(C)C(=O)C[C@@H](C)NC(=O)[C@H](CC(C)C)N(C)C(=O)C2(CCCC2)NC(=O)[C@H](CC(C)C)N(C)C(=O)[C@H](CCc2ccc(C(F)(F)F)c(F)c2)NC(=O)CN(C)C(=O)[C@H](Cc2ccc(Cl)cc2)N(C)C(=O)[C@@H]2CCN2C(=O)CN(C)C1=O [Compound 418] (cyclo([Ac5c][NMeL][d(β3hA)][NMeV]I[Sar][Aze][NMePhe(4-Cl)][Sar][hPhe(3-F,4-CF3)][NMeL]))	> 500
CC[C@H](C)[C@@H]1NC(=O)[C@H](CC(C)C)N(C)C(=O)C[C@@H](C(=O)N2CCCCC2)N(C)C(=O)[C@H](CC(C)C)NC(=O)C(C)(C)N(C)C(=O)[C@H](Cc2ccccc2Cl)NC(=O)[C@H](Cc2cccc(I)c2)NC(=O)CN(C)C(=O)[C@H](Cc2ccc(C)cc2)N(C)C(=O)CN(C)C(=O)CN(C)C1=O [Compound 706] ([NMeL]I[Sar][Sar][NMePhe(4-Me)][Sar][Phe(3-I)][Phe(2-Cl)][NMeAib]L[NMeD]-Piperidide; lactam N-11)	> 500
CC[C@H](C)[C@@H]1NC(=O)[C@H](CC(C)C)N(C)C(=O)C[C@@H](C(=O)N2CCCCC2)N(C)C(=O)[C@H](CC(C)C)NC(=O)C(C)(C)N(C)C(=O)[C@H](Cc2ccc(C)cc2)NC(=O)[C@H](Cc2cccc(I)c2)NC(=O)CN(C)C(=O)[C@H](CC2CCCCC2)N(C)C(=O)CN(C)C(=O)CN(C)C1=O [Compound 166] ([NMeL]I[Sar][Sar][NMeCha][Sar][Phe(3-I)][Phe(4-Me)][NMeAib]L[NMeD]-Piperidide; lactam N-11)	> 500
CC[C@H](C)[C@@H]1NC(=O)[C@H](C)N(C)C(=O)C[C@@H](C)NC(=O)[C@H](C(C)C)N(C)C(=O)C2(CCCC2)NC(=O)[C@@H]2CCCN2C(=O)[C@H](CCc2ccc(C(F)(F)F)c(Cl)c2)NC(=O)CN(C)C(=O)[C@H](Cc2ccccc2)N(C)C(=O)[C@@H]2CCCN2C(=O)CN(C)C1=O [Compound 1778] (cyclo([Ac5c][NMeV][d(β3hA)][NMeA]I[Sar]P[NMeF][Sar][hPhe(3-Cl-4-CF3)]P))	> 500
CC[C@H](C)[C@@H]1NC(=O)[C@H](C)N(C)C(=O)C[C@@H](C(=O)N2CCCCC2)N(C)C(=O)[C@H](C(C)C)N(C)C(=O)C2(CCCC2)NC(=O)[C@@H]2CCCN2C(=O)[C@H](CCc2ccc(C(F)(F)F)c(F)c2)NC(=O)CN(C)C(=O)[C@H](CC2CCCCC2)N(C)C(=O)CN(C)C(=O)CN(C)C1=O [Compound 266] ([NMeA]I[Sar][Sar][NMeCha][Sar][hPhe(3-F,4-CF3)]P[Ac5c][NMeV][NMeD]-Piperidide; lactam N-11)	> 500
